Legend:
Assay type in all cases: cell-based, mouse
[1] = system: MEFs; test: Direct reprogramming of MEFs into astrocytes, GFAP/S100β immunostaining; settings: MEFs treated for 25 days, GFAP immunostaining
Procedure: Cell culture. MEFs and TTFs were derived from E13.5 embryos of Oct4-GFP transgenic (OG2) mice (Szabo et al., 2002), wild type or GFAP-GFP transgenic mice (Jackson Laboratory) (Zhuo et al., 1997). These cells were cultured in MEF medium containing DMEM, 10% FBS, 0.1 mM nonessential amino acids, and 2 mM L-glutamine. Mouse primary astrocytes were isolated from P1-2 pups following published protocol ([…] et al., 2013) and cultured in DMEM containing 10% FBS. Direct reprogramming mouse fibroblasts into astrocytes. MEFs were plated on 6-well or 12-well plates at a cell density of 3×10^3 cells/cm^2. Cells were cultured in MEF medium for 24 hr, then changed to mouse induced astrocyte medium (iAM) containing knock-out DMEM with 10% knock-out serum replacer, 10% FBS, 2 mM L-glutamine, 0.1 mM NEAA, 0.1 mM β-mercaptoethanol, and 100 ng/ml FGF. Cells were treated with compounds, including […] valproaic acid (VPA) (Stemgent), 3 μM CHIR99021(D&C chemicals), 10 μM SB-431542 (D&C chemicals), 10 μM Tranylcypromine (Stemgent), and 1 μM OAC1(Li et al., 2012) for 10 days, replated onto Matrigel-coated plates (BD Biosciences) and continued with compound treatment for another 15 days. Cells were then switched to mouse astrocyte medium (AM) containing DMEM with 10% heat-inactivated FBS. Immunocytochemistry. […]

[2] = system: induced astrocytes (iA) transfected with R239C AxD mutant GFAP-GFP; test: GFAP protein aggregates in induced astrocytes transfected with AxD mutant GFAP-GFP; settings: 100 μM ceftriaxone for 48 hr vs vehicle
Procedure: Transfection into induced astrocytes. Induced astrocytes (iA) were seeded at 1×10^5 cells per well in 12-well plates and incubated overnight. Then 2 μg plasmid of human wild type (WT) GFAP-GFP or AxD mutant GFAP-GFP with the R239C mutation (Bachetti et al., 2008) was transfected into iA using Lipofectamine® 2000 (Invitrogen). Forty eight hr after transfection, cells were assayed by immunostaining. For drug treatment, 24 hr after transfection, cells were treated with vehicle control or 100 μM ceftriaxone for 48 hr, followed by immunostaining.
AxD is a neurological disease with astrocyte dysfunction and is caused by genetic mutation of the GFAP gene (Messing et al., 2012). Expression of AxD mutant GFAP induces the expression of αB-crystallin, a small heat shock protein, and the formation of protein aggregates containing GFAP and αB-crystallin in astrocytes (Messing et al., 2012). The compound-induced astrocytes were tested to see if they could be used to model AxD. Plasmid expressing GFP fusion of the wild type (WT) or AxD mutant GFAP containing the R239C mutation, a hotspot mutation for AxD (Hagemann et al., 2006), were transfected into VCSTO-induced astrocytes. […] VCSTO-induced astrocytes transfected with the AxD mutant GFAP were treated with ceftriaxone.

[3] = system: MEF transduced with AxD GFAP-GFP; test: GFAP protein aggregates in MEF transduced with AxD mutant GFAP-GFP; settings: ceftriaxone vs vehicle
Procedure: FIGS. 12A-12E illustrate recapitulating GFAP protein aggregates in VCSTO-induced astrocytes (iA) transfected with an AxD mutant GFAP. […] The transfected cells are indicated by GFP. Nuclei Dapi staining (blue) is included in the merged images. Scale bar, 10 μm. […] Scale bar, 10 μm. […] The percentage of iA that contained the GFAP-GFP aggregates was reduced upon ceftriaxone treatment. n=400 to 500 cells. […] MEF transduced with the AxD GFAP-GFP were treated with ceftriaxone (+Cef) or vehicle control (−Cef). The percentage of MEF that contain the GFAP-GFP aggregates remained the same in the absence or presence of ceftriaxone treatment. n=600 to 900 cells. […] Error bars are sd of the mean, **p<0.01 by Student's t-test.
AxD is a neurological disease with astrocyte dysfunction and is caused by genetic mutation of the GFAP gene (Messing et al., 2012). Expression of AxD mutant GFAP induces the expression of αB-crystallin, a small heat shock protein, and the formation of protein aggregates containing GFAP and αB-crystallin in astrocytes (Messing et al., 2012). The compound-induced astrocytes were tested to see if they could be used to model AxD. Plasmid expressing GFP fusion of the wild type (WT) or AxD mutant GFAP containing the R239C mutation, a hotspot mutation for AxD (Hagemann et al., 2006), were transfected into VCSTO-induced astrocytes. […]

For `Cc1cccc(-c2n[nH]cc2-c2ccc3ncccc3n2)n1` [Compound 6, 2-[5-(6-methylpyridin-2-yl)-1H-pyrazol-4-yl]-1,5-naphthyridine], the “induction of GFAP-positive cells from MEFs” value [1] was “able to induce GFAP-positive cells”.
With `NC(=O)c1ccc(-c2nc(-c3ccc4c(c3)OCO4)c(-c3ccccn3)[nH]2)cc1` [S, 4-[4-(1,3-benzodioxol-5-yl)-5-pyridin-2-yl-1H-imidazol-2-yl]benzamide] the “induction of GFAP-positive cells from MEFs” value [1] was “sufficient to induce GFAP-positive cells”.
For `CO/N=C(\C(=O)N[C@@H]1C(=O)N2C(C(=O)O)=C(CSc3nc(=O)c(=O)[nH]n3C)CS[C@H]12)c1csc(N)n1` [ceftriaxone], the “GFAP protein aggregates in iA with AxD mutant GFAP” value [2] was “Substantial elimination of GFAP protein aggregates” and the “GFAP protein aggregates in MEF with AxD mutant GFAP” value [3] was “not responsive”.
